Where no end group is shown, it is not given here.

Experimental findings from patent publication US20040121946A9, “Inducing cellular immune responses to her2/neu using peptide and nucleic acid compositions” (priority 2002, published 2004) are described below.

Test [1] relates to peptide-pulsed target cells and transfected cells endogenously expressing the antigen. Kind of test: Recall CTL responses of PBMCs from ovarian cancer patients. The format is cell-based, human. The note with it: for CTL Tumor / CTL Wildtype: data from ovarian cancer patients; for recognition by CTLs from cancer patient PBMCs: two patients with ovarian cancer, peptide-pulsed targets and transfected cells.
Description: Immunogenicity was additionally confirmed using PBMCs isolated from cancer patients. Briefly, PBMCs were isolated from two patients with ovarian cancer, re-stimulated with peptide-pulsed monocytes and assayed for the ability to recognize peptide-pulsed target cells as well as transfected cells endogenously expressing the antigen.

The target in another test is HLA-A*0301 (Homo sapiens, UniProt P04439). The format is binding. To be noted: Table XXIII, HLA-A3 supermotif-bearing peptides.
Another test addresses HLA-A*3101 (Homo sapiens, UniProt P04439, A270S/D185E/E176V/E277Q/F33T/G231S/G80R/H175R/I121M/I218V/I322F/K168Q/L300P/L318F/M331R/P217A/Q94H/R138Q/T323A/T345S/T97I/V358M). The format is binding. To be noted: Table XXIII, HLA-A3 supermotif-bearing peptides.
The target of a further test is HLA-A*6801 (Homo sapiens, UniProt P04439, A269V/D185E/E176V/E277Q/E87N/F33Y/G231S/I121M/I166T/I218V/L180W/L300P/L318F/N151K/P208A/P217A/Q86R/R169H/T345S). The format is binding. To be noted: Table XXIII, HLA-A3 supermotif-bearing peptides.
Another test deals with HLA-A*1101 (Homo sapiens, UniProt P04439, A114D/D185E/E176A/F33Y/L180Q/S129P/T187R). The class given is binding. The note with it: Table XXIII, HLA-A3 supermotif-bearing peptides.
Sequence of HLA-A*1101 (P04439 25-365 limits assumed, stated change not applied): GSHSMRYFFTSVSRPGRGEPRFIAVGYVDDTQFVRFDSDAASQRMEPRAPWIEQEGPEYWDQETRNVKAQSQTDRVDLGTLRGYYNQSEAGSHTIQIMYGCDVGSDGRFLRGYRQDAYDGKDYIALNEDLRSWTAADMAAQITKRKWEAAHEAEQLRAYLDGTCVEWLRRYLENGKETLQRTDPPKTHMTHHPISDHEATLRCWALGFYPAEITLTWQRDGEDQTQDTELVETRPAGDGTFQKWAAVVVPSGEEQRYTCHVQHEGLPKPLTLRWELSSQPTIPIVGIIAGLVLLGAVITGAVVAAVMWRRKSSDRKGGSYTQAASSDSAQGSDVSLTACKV
Another test has as its target HLA-A*3301 (Homo sapiens, UniProt P04439, A270S/D185E/E176V/E277Q/E87N/F33T/G231S/H175R/I121M/I218V/I322F/K168Q/K210R/L300P/L318F/M331R/P217A/Q86R/Q94H/R138Q/T323A/T345S/T97I/V358M/Y195H). The format is binding. The note with it: Table XXIII, HLA-A3 supermotif-bearing peptides.
The test system of test [2] is A3-supertype alleles (A*0301, A*1101, A*3101, A*3301, A*6801). Kind of test: A3-supertype cross-reactive binding. On the set-up: species or system human. To be noted: of five A3-supertype alleles tested.

With `CSCC[C@H](NC(=O)[C@@H](N)C(C)C)C(=O)N[C@@H](C)C(=O)NCC(=O)N[C@H](C(=O)NCC(=O)N[C@@H](CO)C(=O)N1CCC[C@H]1C(=O)N[C@@H](Cc1ccc(O)cc1)C(=O)N[C@H](C(=O)O)C(C)C)C(C)C`, in test [1], the “CTL Tumor” value is given as 1/2 and the “CTL Wildtype” value was 1/2.

In the case of `CC(C)C[C@H](NC(=O)[C@H](CC(C)C)NC(=O)[C@@H](N)CCCNC(=N)N)C(=O)N[C@@H](CCC(N)=O)C(=O)N[C@@H](CCC(=O)O)C(=O)N[C@H](C(=O)N[C@@H](CCC(=O)O)C(=O)N[C@@H](CC(C)C)C(=O)N[C@H](C(=O)O)C(C)C)[C@@H](C)O` [Her2/neu.689], the “recognition by CTLs from cancer patient PBMCs” value (“recognition by CTLs” below) in test [1] is “is also an epitope”.

`CC[C@H](C)[C@H](N)C(=O)N[C@@H](CC(C)C)C(=O)N[C@@H](Cc1c[nH]cn1)C(=O)N[C@@H](CC(N)=O)C(=O)NCC(=O)N[C@@H](C)C(=O)N[C@@H](Cc1ccc(O)cc1)C(=O)N[C@@H](CO)C(=O)N[C@@H](CC(C)C)C(=O)O`: in test [1], the “CTL Tumor” value is 2/2 and the “CTL Wildtype” value is recorded as 2/2.

As to `CC[C@H](C)[C@H](N)C(=O)N[C@@H](CC(C)C)C(=O)N[C@@H](Cc1c[nH]cn1)C(=O)N[C@@H](CC(N)=O)C(=O)NCC(=O)N[C@@H](C)C(=O)N[C@@H](Cc1ccc(O)cc1)C(=O)N[C@@H](CO)C(=O)N[C@@H](CC(C)C)C(=O)O` [Her2/neu.435], the “recognition by CTLs” value in test [1] is recorded as “recognized in 2 donors”.

As a reminder, the IC50 is the concentration at which inhibition is half-maximal. In the case of `CC[C@H](C)[C@H](N)C(=O)N[C@@H](CC(C)C)C(=O)N[C@@H](Cc1c[nH]c2ccccc12)C(=O)N[C@@H](CCCCN)C(=O)N[C@@H](CC(=O)O)C(=O)N[C@H](C(=O)N[C@@H](Cc1ccccc1)C(=O)N[C@@H](Cc1c[nH]cn1)C(=O)N[C@@H](CCCCN)C(=O)O)[C@@H](C)CC` [Her2/neu.167], the IC50 against HLA-A*0301 is 39 nM; against HLA-A*3101, 82 nM; against HLA-A*6801, 1740 nM; on HLA-A*1101 it was 19 nM; at HLA-A*3301 it was 967 nM.

Regarding `CC(C)C[C@H](NC(=O)[C@@H](N)Cc1c[nH]cn1)C(=O)N[C@@H](Cc1ccc(O)cc1)C(=O)N[C@@H](CCC(N)=O)C(=O)NCC(=O)N[C@@H](CS)C(=O)N[C@@H](CCC(N)=O)C(=O)N[C@H](C(=O)N[C@H](C(=O)O)C(C)C)C(C)C`, in test [1], the “CTL Tumor” value is recorded as 1/2 and the “CTL Wildtype” value is recorded as 2/2.

With `CC(C)C[C@H](NC(=O)[C@@H](N)Cc1c[nH]cn1)C(=O)N[C@@H](Cc1ccc(O)cc1)C(=O)N[C@@H](CCC(N)=O)C(=O)NCC(=O)N[C@@H](CS)C(=O)N[C@@H](CCC(N)=O)C(=O)N[C@H](C(=O)N[C@H](C(=O)O)C(C)C)C(C)C` [Her2/neu.48], in test [1], the “recognition by CTLs” value is recorded as “recognized in 2 donors”.

Turning to TILWKDIFHK [Her2/neu.166], the half-inhibitory concentration (IC50) turned out to be 256 nM against HLA-A*0301; 487 nM against HLA-A*3101; 200 nM on HLA-A*6801; 1.7 nM against HLA-A*1101; 690 nM against HLA-A*3301.

As for `CC(C)C[C@H](NC(=O)[C@H](CCC(N)=O)NC(=O)[C@@H](NC(=O)[C@@H](NC(=O)[C@H](CO)NC(=O)[C@@H](NC(=O)[C@H](CC(C)C)NC(=O)[C@@H](N)CS)[C@@H](C)O)[C@@H](C)O)C(C)C)C(=O)N[C@H](C(=O)O)C(C)C` [Her2/neu.789], in test [1], the “recognition by CTLs” value is reported as “recognized peptide-pulsed targets only”.

Take `CC[C@H](C)[C@H](NC(=O)[C@H](CC(C)C)NC(=O)[C@@H](N)C(C)C)C(=O)N[C@@H](CCC(N)=O)C(=O)N[C@@H](CCCNC(=N)N)C(=O)N[C@@H](CC(N)=O)C(=O)N1CCC[C@H]1C(=O)N[C@@H](CCC(N)=O)C(=O)N[C@@H](CC(C)C)C(=O)O` [Her2/neu.153]: the “recognition by CTLs” value in test [1] is listed as “recognized peptide-pulsed targets only”.

As for `CC[C@H](C)[C@H](NC(=O)[C@H](CC(=O)O)NC(=O)[C@H](CCCCN)NC(=O)[C@H](Cc1c[nH]c2ccccc12)NC(=O)[C@H](CC(C)C)NC(=O)[C@@H](NC(=O)[C@@H](N)[C@@H](C)O)C(C)C)C(=O)N[C@@H](Cc1ccccc1)C(=O)N[C@@H](Cc1c[nH]cn1)C(=O)N[C@@H](CCCNC(=N)N)C(=O)O` [Her2/neu.166.V2R10], the IC50 against HLA-A*0301 was found to be 8460 nM; at HLA-A*3101 it was 600 nM; on HLA-A*6801, 42 nM; against HLA-A*1101, 286 nM; against HLA-A*3301, 76 nM.

With `CC[C@H](C)[C@H](NC(=O)[C@@H](N)CCCCN)C(=O)N[C@@H](Cc1ccccc1)C(=O)NCC(=O)N[C@@H](CO)C(=O)N[C@@H](CC(C)C)C(=O)N[C@@H](C)C(=O)N[C@@H](Cc1ccccc1)C(=O)N[C@@H](CC(C)C)C(=O)O` [Her2/neu.369], in test [1], the “recognition by CTLs” value is “recognized in 2 donors”.

With HVVPWDQLFR [Her2/neu.478.V2], the IC50 on HLA-A*0301 was determined as 7330 nM; at HLA-A*6801, 3.6 nM; against HLA-A*1101, 1330 nM; against HLA-A*3301, 193 nM. Moreover, in test [2], the “No. of A3 Alleles Crossbound” value was found to be 3.

As to `CC[C@H](C)[C@H](N)C(=O)N[C@H](C(=O)N[C@@H](Cc1c[nH]c2ccccc12)C(=O)N[C@@H](CCCCN)C(=O)N[C@@H](CC(=O)O)C(=O)N[C@H](C(=O)N[C@@H](Cc1ccccc1)C(=O)N[C@@H](Cc1c[nH]cn1)C(=O)N[C@@H](CCCNC(=N)N)C(=O)O)[C@@H](C)CC)C(C)C` [Her2/neu.167.V2R9], the IC50 against HLA-A*0301 turned out to be 143 nM; against HLA-A*3101, 6 nM; against HLA-A*6801, 15 nM; against HLA-A*1101, 286 nM; against HLA-A*3301, 16 nM.

For the compound `CC(C)[C@H](NC(=O)[C@@H](NC(=O)[C@@H](N)CCCNC(=N)N)[C@@H](C)O)C(=O)N[C@@H](CS)C(=O)N[C@@H](C)C(=O)NCC(=O)NCC(=O)N[C@@H](CS)C(=O)N[C@@H](C)C(=O)N[C@@H](CCCNC(=N)N)C(=O)O` [Her2/neu.217], the IC50 against HLA-A*0301 was found to be 1620 nM; on HLA-A*3101, 40 nM; against HLA-A*6801, 320 nM; on HLA-A*1101, 462 nM.

Take `CSCC[C@H](NC(=O)[C@@H](N)C(C)C)C(=O)N[C@@H](C)C(=O)NCC(=O)N[C@H](C(=O)NCC(=O)N[C@@H](CO)C(=O)N1CCC[C@H]1C(=O)N[C@@H](Cc1ccc(O)cc1)C(=O)N[C@H](C(=O)O)C(C)C)C(C)C` [Her2/neu.773]: the “recognition by CTLs” value in test [1] is “recognized by CTLs from only one of the two patients”.

Turning to `CC[C@H](C)[C@H](N)C(=O)N[C@@H](CC(C)C)C(=O)N[C@@H](CCCCN)C(=O)NCC(=O)NCC(=O)N[C@H](C(=O)N[C@@H](CC(C)C)C(=O)N[C@H](C(=O)N[C@@H](CCC(N)=O)C(=O)N[C@@H](CCCNC(=N)N)C(=O)O)[C@@H](C)CC)C(C)C` [Her2/neu.148], the half-inhibitory concentration (IC50) on HLA-A*0301 was 275 nM; against HLA-A*3101 it was 25 nM; against HLA-A*6801 it was 205 nM; against HLA-A*1101, > 10000 nM; against HLA-A*3301 it was 121 nM.

In the case of `CC[C@H](C)[C@H](N)C(=O)N[C@H](C(=O)N[C@@H](CCCCN)C(=O)NCC(=O)NCC(=O)N[C@H](C(=O)N[C@@H](CC(C)C)C(=O)N[C@H](C(=O)N[C@@H](CCC(N)=O)C(=O)N[C@@H](CCCCN)C(=O)O)[C@@H](C)CC)C(C)C)C(C)C` [Her2/neu.148.V2K10], the IC50 against HLA-A*0301 worked out at 26 nM; against HLA-A*3101, 450 nM; on HLA-A*6801, 27 nM; against HLA-A*1101, 102 nM; against HLA-A*3301, 6590 nM.

With `CC[C@H](C)[C@H](NC(=O)CNC(=O)[C@H](Cc1ccccc1)NC(=O)[C@@H](NC(=O)[C@@H](NC(=O)CNC(=O)[C@H](CC(C)C)NC(=O)[C@@H](NC(=O)[C@@H](N)C(C)C)C(C)C)C(C)C)C(C)C)C(=O)O` [Her2/neu.665], the “recognition by CTLs” value in test [1] was “recognized by CTLs from only one of the two patients”.

On to `CC[C@H](C)[C@H](NC(=O)[C@H](CCC(=O)O)NC(=O)[C@@H](NC(=O)[C@H](CC(C)C)NC(=O)[C@H](CO)NC(=O)[C@H](CCCNC(=N)N)NC(=O)[C@H](CC(C)C)NC(=O)[C@@H](N)CCC(N)=O)[C@@H](C)O)C(=O)N[C@@H](CC(C)C)C(=O)N[C@@H](CCCCN)C(=O)O` [Her2/neu.141], for which the IC50 against HLA-A*0301 was 55 nM; on HLA-A*3101, 667 nM; on HLA-A*6801 it was > 10000 nM; on HLA-A*1101, 462 nM; against HLA-A*3301 it was 6170 nM.

Consider `CC[C@H](C)[C@H](N)C(=O)N[C@H](C(=O)N[C@@H](Cc1c[nH]c2ccccc12)C(=O)N[C@@H](CCCCN)C(=O)N[C@@H](CC(=O)O)C(=O)N[C@H](C(=O)N[C@@H](Cc1ccccc1)C(=O)N[C@@H](Cc1c[nH]cn1)C(=O)N[C@@H](CCCCN)C(=O)O)[C@@H](C)CC)C(C)C` [Her2/neu.167.V2], for which the IC50 at HLA-A*0301 was 23 nM; at HLA-A*3101, 247 nM; on HLA-A*6801, 178 nM; at HLA-A*1101 it was 40 nM; at HLA-A*3301 it was 853 nM.

Turning to `CC[C@H](C)[C@H](N)C(=O)N[C@H](C(=O)N[C@@H](CCCCN)C(=O)NCC(=O)NCC(=O)N[C@H](C(=O)N[C@@H](CC(C)C)C(=O)N[C@H](C(=O)N[C@@H](CCC(N)=O)C(=O)N[C@@H](CCCNC(=N)N)C(=O)O)[C@@H](C)CC)C(C)C)C(C)C` [Her2/neu.148.V2], the half-inhibitory concentration (IC50) against HLA-A*0301 was 275 nM; at HLA-A*3101, 72 nM; at HLA-A*6801, 29 nM; against HLA-A*1101, 7500 nM.
